In patent publication US20230227442A1, “HETEROALKYL DIHYDROQUINOLINE SULFONAMIDE COMPOUNDS” (AMGEN INC., priority 2020, published 2023):
Blank lines part the entries; values can stand above or below the molecule they belong to.

Assays:
CYP3A4 = experiment: Human CYP 3A4 induction assay (mRNA, cryopreserved human hepatocytes); type: in vitro ADME; conditions: 72 hours, percent of control (POC); for CYP3A4 mRNA Induct Hu 2 uM POC: 2 uM test compound; for CYP3A4 mRNA Induct Hu 10 uM POC: 10 uM test compound
Procedure: Human CYP 3A4 Induction Assay
Cryopreserved human hepatocytes were seeded in 96-well collagen coated plates at 70,000 cells per well in hepatocyte plating media (HPM, final concentrations: lx Dulbecco's Modified Eagle's Medium, 0.1 μM dexamethasone, 10% fetal bovine serum, lx ITS, 1×PSG) followed by incubation at 37° C. under 5% CO2 and 90% relative humidity for 2 days to allow hepatocytes to form a confluent layer. On Day 3, hepatocytes were treated with either test compound or rifampin (20 μM, positive control for CYP3A induction) prepared in hepatocyte incubation media ((HIM, final concentrations: 1× William's Medium E, 0.1 μM dexamethasone, 1×ITS, 1×PSG). Treatment was performed for 72 hours with either 2 concentrations (2 μM or 10 μM) or a range of concentrations (0.001 μM to 100 μM) of the test compound to obtain full dose-response curve. Fresh media containing the relevant concentrations of the test compound was replaced every day until the samples were processed. After 72 hours of incubation, samples were processed for mRNA analysis using bDNA technology using manufacturer's instructions (Affymetrix, Fremont, Calif.). Cell viability was tested at the end of the experiment using MTT assay kit (Roche Diagnostics, Basel, Switzerland). Data was analyzed and presented as percent of control (POC) and Emax and EC50 obtained when appropriate according to guidance from Center for Drug Evaluation and Research (CDER), 2006, Guidance for Industry, Drug Interaction Studies—Study Design, Data Analysis, and Implications for Dosing and Labeling.
Cryopreserved human hepatocytes were seeded in 96-well collagen coated plates at 70,000 cells per well in hepatocyte plating media (HPM, final concentrations: lx Dulbecco's Modified Eagle's Medium, 0.1 μM dexamethasone, 10% fetal bovine serum, lx ITS, 1×PSG) followed by incubation at 37° C. under 5% CO2 and 90% relative humidity for 2 days to allow hepatocytes to form a confluent layer. On Day 3, hepatocytes were treated with either test compound or rifampin (20 μM, positive control for CYP3A induction) prepared in hepatocyte incubation media ((HIM, final concentrations: 1× William's Medium E, 0.1 μM dexamethasone, 1×ITS, 1×PSG). Treatment was performed for 72 hours with either 2 concentrations (2 μM or 10 μM) or a range of concentrations (0.001 μM to 100 μM) of the test compound to obtain full dose-response curve. Fresh media containing the relevant concentrations of the test compound was replaced every day until the samples were processed. After 72 hours of incubation, samples were processed for mRNA analysis using bDNA technology using manufacturer's instructions (Affymetrix, Fremont, Calif.). Cell viability was tested at the end of the experiment using MTT assay kit (Roche Diagnostics, Basel, Switzerland). Data was analyzed and presented as percent of control (POC) and Emax and EC50 obtained when appropriate, as described in Halladay, J. et al, 2012, An “all-inclusive” 96-well cytochrome P450 induction method: Measuring enzyme activity, mRNA levels, protein levels, and cytotoxicity from one well using cryopreserved human hepatocytes, Pharmacological and Toxicological Methods, 66:270-275.

Human Nav1.7 = molecular target: T1, Human Nav1.7 (Homo sapiens, UniProt Q15858); experiment: Ionworks Barracuda (IWB) automated patch clamp assay; type: cell-based; conditions: population patch clamp, HEK cells, 4 min compound incubation at -20 mV; read-out: hNaV1.7 IWB-U IC50
T1 construct: expressed in transfected cells; host or cells: Spiking HEK cells (without Kir2.1 transfection)
T1 sequence (Q15858 whole entry): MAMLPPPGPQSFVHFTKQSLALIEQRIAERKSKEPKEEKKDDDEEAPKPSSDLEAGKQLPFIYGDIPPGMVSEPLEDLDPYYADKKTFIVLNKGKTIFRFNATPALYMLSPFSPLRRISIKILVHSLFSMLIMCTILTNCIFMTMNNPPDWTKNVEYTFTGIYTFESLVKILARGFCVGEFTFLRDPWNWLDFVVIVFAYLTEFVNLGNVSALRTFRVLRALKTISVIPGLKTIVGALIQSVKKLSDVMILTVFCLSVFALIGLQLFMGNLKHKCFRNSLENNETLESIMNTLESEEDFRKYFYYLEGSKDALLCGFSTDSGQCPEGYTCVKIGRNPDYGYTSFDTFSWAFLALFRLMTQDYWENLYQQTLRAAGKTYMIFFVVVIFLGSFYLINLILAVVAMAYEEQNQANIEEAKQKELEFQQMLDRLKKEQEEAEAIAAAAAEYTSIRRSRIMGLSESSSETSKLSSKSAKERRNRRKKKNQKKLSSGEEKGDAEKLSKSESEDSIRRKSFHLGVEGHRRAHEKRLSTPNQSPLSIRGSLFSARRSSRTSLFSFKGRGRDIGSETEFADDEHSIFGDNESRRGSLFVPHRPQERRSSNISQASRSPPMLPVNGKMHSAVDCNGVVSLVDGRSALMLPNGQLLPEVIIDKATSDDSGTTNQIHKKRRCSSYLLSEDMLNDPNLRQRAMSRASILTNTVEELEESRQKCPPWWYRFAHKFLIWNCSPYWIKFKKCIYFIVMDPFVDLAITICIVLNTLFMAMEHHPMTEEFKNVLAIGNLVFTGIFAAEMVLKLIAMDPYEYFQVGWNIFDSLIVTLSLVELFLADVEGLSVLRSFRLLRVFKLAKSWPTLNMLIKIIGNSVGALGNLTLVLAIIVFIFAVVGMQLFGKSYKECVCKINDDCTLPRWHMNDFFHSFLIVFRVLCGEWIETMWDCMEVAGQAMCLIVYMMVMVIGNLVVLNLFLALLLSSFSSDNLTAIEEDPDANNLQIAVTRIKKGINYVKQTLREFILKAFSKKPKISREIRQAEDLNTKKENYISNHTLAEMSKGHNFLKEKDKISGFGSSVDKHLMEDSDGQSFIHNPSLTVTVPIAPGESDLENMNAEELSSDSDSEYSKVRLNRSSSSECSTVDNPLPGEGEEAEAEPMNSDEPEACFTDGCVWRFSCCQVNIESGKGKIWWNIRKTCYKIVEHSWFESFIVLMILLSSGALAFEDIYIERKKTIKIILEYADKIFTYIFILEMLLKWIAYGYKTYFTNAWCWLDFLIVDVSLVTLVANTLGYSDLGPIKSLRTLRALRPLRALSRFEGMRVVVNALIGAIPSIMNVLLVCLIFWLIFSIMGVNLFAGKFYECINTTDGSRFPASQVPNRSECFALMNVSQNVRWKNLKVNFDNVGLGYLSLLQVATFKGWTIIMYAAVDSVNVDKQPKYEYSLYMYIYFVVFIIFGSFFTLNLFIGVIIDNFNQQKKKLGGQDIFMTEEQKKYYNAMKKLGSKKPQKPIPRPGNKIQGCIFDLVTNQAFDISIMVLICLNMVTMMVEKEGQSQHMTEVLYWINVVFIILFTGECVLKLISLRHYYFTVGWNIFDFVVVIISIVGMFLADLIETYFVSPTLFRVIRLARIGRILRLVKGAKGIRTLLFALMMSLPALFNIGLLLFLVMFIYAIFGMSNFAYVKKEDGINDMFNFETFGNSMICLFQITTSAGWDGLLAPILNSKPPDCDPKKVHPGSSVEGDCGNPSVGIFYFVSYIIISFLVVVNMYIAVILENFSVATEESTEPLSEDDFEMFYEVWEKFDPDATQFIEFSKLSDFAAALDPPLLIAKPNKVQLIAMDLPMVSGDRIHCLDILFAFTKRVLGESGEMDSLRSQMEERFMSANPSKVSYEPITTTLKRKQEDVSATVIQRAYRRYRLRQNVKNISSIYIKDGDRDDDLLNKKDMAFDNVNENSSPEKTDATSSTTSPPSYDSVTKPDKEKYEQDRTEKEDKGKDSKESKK
Procedure: Ionworks Barracuda Automated Patch Clamp Assay (Same Protocol for Both Human and Mouse)
Human Nav1.7 currents were recorded in population patch-clamp mode with the IWB automated electrophysiology system (Molecular Devices, LLC, Sunnyvale, Calif.). Spiking HEK cells (without Kir2.1 transfection) were cultured and prepared for recordings as previously described for IonWorks Quattro testing^1. The external solution consisted of the following (in mM): NaCl 140, KCl 5, CaCl2 2, MgCl2 1, HEPES 10, and glucose 11, pH 7.4, with N-methyl-D-glucamine at 320 mOsmol. The internal solution consisted of the following (in mM): KCl 70, KF 70, MgCl2 0.25, HEDTA 5, and HEPES 10, pH 7.25, with Nmethyl-D-glucamine, 300 mOsmol. From a holding potential of −110 mV, currents were elicited by a train of 26 depolarizations of 150 ms duration to −20 mV at a frequency of 5 Hz. Cells were then clamped to −20 mV for a period of 4 minutes in the presence of a single concentration of test compound. Following this compound incubation period, cells were clamped to −110 mV for three seconds to recover unbound channels and put through the same 26 pulse voltage protocol as above. Peak inward current during the 26th pulse to −20 mV in the presence of compound was divided by the peak inward current evoked by the 26th pulse to −20 mV in the absence of compound to determine percent inhibition. Concentration-response curves of percent inhibition as a function of concentration were generated to calculate IC50 values as described in Kornecook, T. J.; Yin, R.; Altmann, S.; et al. Pharmacologic Characterization of AMG8379, a Potent and Selective Small Molecule Sulfonamide Antagonist of the Voltage-Gated Sodium Channel NaV1. 7. J. Pharmacol. Exp. Ther. 2017, 362, 146-160.

SMILES: COc1cc(COC(F)(F)F)c(Cl)cc1-n1c(=O)ccc2cc(S(=O)(=O)Nc3ccon3)ccc21 (atropisomer, axis not shown; (P)) [Example 1, (P)-1-(5-chloro-2-methoxy-4-((trifluoromethoxy)methyl)phenyl)-N-(isoxazol-3-yl)-2-oxo-1,2-dihydroquinoline-6-sulfonamide]
CYP3A4 mRNA Induct Hu 2 uM POC (CYP3A4): 1.7%
IC50 (Human Nav1.7): 0.007 µM

SMILES: COc1cc(SC(F)(F)F)c(Cl)cc1-n1c(=O)ccc2cc(S(=O)(=O)Nc3ccon3)ccc21 (atropisomer, axis not shown; (P)) [Example 2, (P)-1-(5-chloro-2-methoxy-4-((trifluoromethyl)thio)phenyl)-N-(isoxazol-3-yl)-2-oxo-1,2-dihydroquinoline-6-sulfonamide]
IC50 (Human Nav1.7): 0.008 µM

SMILES: COc1cc(OC(F)(F)F)c(Cl)cc1-n1c(=O)ccc2cc(S(=O)(=O)Nc3ccon3)ccc21 (atropisomer, axis not shown; (P)) [Example 3, (P)-1-(5-chloro-2-methoxy-4-(trifluoromethoxy)phenyl)-N-(isoxazol-3-yl)-2-oxo-1,2-dihydroquinoline-6-sulfonamide]
CYP3A4 mRNA Induct Hu 2 uM POC (CYP3A4): 10.1%
CYP3A4 mRNA Induct Hu 10 uM POC (CYP3A4): 35.4%
IC50 (Human Nav1.7): 0.009 µM

SMILES: COc1cc(COC(F)(F)F)c(F)cc1-n1c(=O)ccc2cc(S(=O)(=O)Nc3ccon3)ccc21 (atropisomer, axis not shown; (P)) [Example 4, (P)-1-(5-fluoro-2-methoxy-4-((trifluoromethoxy)methyl)phenyl)-N-(isoxazol-3-yl)-2-oxo-1,2-dihydroquinoline-6-sulfonamide]
CYP3A4 mRNA Induct Hu 2 uM POC (CYP3A4): 0.2%
CYP3A4 mRNA Induct Hu 10 uM POC (CYP3A4): 0.2%
IC50 (Human Nav1.7): 0.011 µM

SMILES: COc1cc(SCC(F)(F)F)c(F)cc1-n1c(=O)ccc2cc(S(=O)(=O)Nc3ccon3)ccc21 (atropisomer, axis not shown; (P)) [Example 5, (P)-1-(5-fluoro-2-methoxy-4-((2,2,2-trifluoroethyl)thio)phenyl)-N-(isoxazol-3-yl)-2-oxo-1,2-dihydroquinoline-6-sulfonamide]
CYP3A4 mRNA Induct Hu 2 uM POC (CYP3A4): 3.4%
CYP3A4 mRNA Induct Hu 10 uM POC (CYP3A4): 7.5%
IC50 (Human Nav1.7): 0.011 µM

SMILES: COc1cc(SC(F)(F)F)c(F)cc1-n1c(=O)ccc2cc(S(=O)(=O)Nc3ccon3)ccc21 (atropisomer, axis not shown; (P)) [Example 8, (P)-1-(5-fluoro-2-methoxy-4-((trifluoromethyl)thio)phenyl)-N-(isoxazol-3-yl)-2-oxo-1,2-dihydroquinoline-6-sulfonamide]
CYP3A4 mRNA Induct Hu 2 uM POC (CYP3A4): 6.1%
CYP3A4 mRNA Induct Hu 10 uM POC (CYP3A4): 24.5%
IC50 (Human Nav1.7): 0.015 µM

SMILES: COc1cc(OC(F)(F)F)c(F)cc1-n1c(=O)ccc2cc(S(=O)(=O)Nc3ccon3)ccc21 (atropisomer, axis not shown; (P)) [Example 9, (P)-1-(5-fluoro-2-methoxy-4-(trifluoromethoxy)phenyl)-N-(isoxazol-3-yl)-2-oxo-1,2-dihydroquinoline-6-sulfonamide]
CYP3A4 mRNA Induct Hu 2 uM POC (CYP3A4): 7.8%
CYP3A4 mRNA Induct Hu 10 uM POC (CYP3A4): 22.2%
IC50 (Human Nav1.7): 0.021 µM

SMILES: COc1cc(OCC(F)(F)F)c(F)cc1-n1c(=O)ccc2cc(S(=O)(=O)Nc3ccon3)ccc21 (atropisomer, axis not shown; (P)) [Example 10, (P)-1-(5-fluoro-2-methoxy-4-(2,2,2-trifluoroethoxy)phenyl)-N-(isoxazol-3-yl)-2-oxo-1,2-dihydroquinoline-6-sulfonamide]
CYP3A4 mRNA Induct Hu 2 uM POC (CYP3A4): 10.8%
CYP3A4 mRNA Induct Hu 10 uM POC (CYP3A4): 35.7%
IC50 (Human Nav1.7): 0.021 µM

Continued by falling IC50 (Human Nav1.7), values first:

CYP3A4 mRNA Induct Hu 2 uM POC (CYP3A4): 3.9%
CYP3A4 mRNA Induct Hu 10 uM POC (CYP3A4): 7.2%
IC50 (Human Nav1.7): 0.024 µM
SMILES: COc1cc(O[C@H](C)C(F)(F)F)c(F)cc1-n1c(=O)ccc2cc(S(=O)(=O)Nc3ccon3)c(F)cc21 (atropisomer, axis not shown; (P)) [Example 16, (P)-(R)-7-fluoro-1-(5-fluoro-2-methoxy-4-((1,1,1-trifluoropropan-2-yl)oxy)phenyl)-N-(isoxazol-3-yl)-2-oxo-1,2-dihydroquinoline-6-sulfonamide]

CYP3A4 mRNA Induct Hu 2 uM POC (CYP3A4): 7.7%
CYP3A4 mRNA Induct Hu 10 uM POC (CYP3A4): 20.2%
IC50 (Human Nav1.7): 0.023 µM
SMILES: COc1cc(OCC(F)(F)F)c(Cl)cc1-n1c(=O)ccc2cc(S(=O)(=O)Nc3ccon3)ccc21 (atropisomer, axis not shown; (P)) [Example 15, (P)-1-(5-chloro-2-methoxy-4-(2,2,2-trifluoroethoxy)phenyl)-N-(isoxazol-3-yl)-2-oxo-1,2-dihydroquinoline-6-sulfonamide]

CYP3A4 mRNA Induct Hu 2 uM POC (CYP3A4): 41.9%
CYP3A4 mRNA Induct Hu 10 uM POC (CYP3A4): 76.1%
IC50 (Human Nav1.7): 0.014 µM
SMILES: COc1cc(CCC(F)(F)F)c(F)cc1-n1c(=O)ccc2cc(S(=O)(=O)Nc3ccon3)ccc21 (atropisomer, axis not shown; (P)) [Compound A, (P)-1-(5-fluoro-2-methoxy-4-(3,3,3-trifluoropropyl)phenyl)-N-(1,2-oxazol-3-yl)-2-oxo-1,2-dihydro-6-quinolinesulfonamide, reference compound]

CYP3A4 mRNA Induct Hu 2 uM POC (CYP3A4): 18.3%
CYP3A4 mRNA Induct Hu 10 uM POC (CYP3A4): 30.1%
IC50 (Human Nav1.7): 0.011 µM
SMILES: COc1cc(COC(F)(F)F)c(F)cc1-n1c(=O)ccc2cc(S(=O)(=O)Nc3ccon3)c(F)cc21 (atropisomer, axis not shown; (P)) [Example 6, (P)-7-fluoro-1-(5-fluoro-2-methoxy-4-((trifluoromethoxy)methyl)phenyl)-N-(isoxazol-3-yl)-2-oxo-1,2-dihydroquinoline-6-sulfonamide]

CYP3A4 mRNA Induct Hu 2 uM POC (CYP3A4): 20.9%
CYP3A4 mRNA Induct Hu 10 uM POC (CYP3A4): 54.2%
IC50 (Human Nav1.7): 0.011 µM
SMILES: COc1cc(SC(F)(F)F)c(F)cc1-n1c(=O)ccc2cc(S(=O)(=O)Nc3ccon3)c(F)cc21 (atropisomer, axis not shown; (P)) [Example 7, (P)-7-fluoro-1-(5-fluoro-2-methoxy-4-((trifluoromethyl)thio)phenyl)-N-(isoxazol-3-yl)-2-oxo-1,2-dihydroquinoline-6-sulfonamide]
